# Assay results reported in US8415349B2, “Dicycloazaalkane derivatives, preparation processes and medical uses thereof” (Jiangsu Hansoh Pharmaceuticals Co., Ltd., priority 2008, dated 2013).
# Structures can show the parent of a compound that is named as a salt.
# What was measured:
# [1] = system: normal ICR mice; experiment: Oral glucose tolerance test in normal ICR mice (hypoglycemic effect); type: in vivo; conditions: 2.5 g/kg glucose, 30 min after glucose
# Description: Species, strains: ICR mice […] The volume is 20 mL/kg. […] The volume is 20 mL/kg. 1. The effects of compounds on blood glucose levels in normal ICR mice Normal male ICR mice were randomly grouped according to weights, 6 mice in each group. The groups included a black control group as well as different doses of the treatment groups as follows: Test 1: Blank control: double-distilled water by gavage. Group 1: the compound of Example 1, 1 mg/kg by gavage; […] Test 2: Blank control: double-distilled water by gavage. Group 1: the compound of Example 1, 1 mg/kg by gavage; […] 2. Serum Glucose Determination: […] The blank tube was used to set the instrument to zero, the colorimetric assay was performed at OD 505 nm. Serum glucose concentration (BG, mmol/l)=ODsample tube/ODstandard tube×5.55 Data Processing and Statistical Analysis: 1. Mean±SD and Student-t test were used in statistical analysis. 2.
# [2] = system: KKAy mice; experiment: Oral glucose tolerance test in type II diabetes KKAy mice; type: in vivo; conditions: 30 min after glucose
# Description: Species, Strains: KKAy mice Preparation Method: […] The volume is 10 mL/kg. The Effects of the Compounds on Blood Glucose in KKay Mice Normal KKAy mice had been fasted for 6 hours, and then were randomly grouped according to the weights and fasting blood glucose, 5 mice in each group. The groups included a blank control group as well as different doses of the treatment groups as follows: Test 1: male 0704 Blank control: double-distilled water by gavage […] Test 2: female 0816 Blank control: double-distilled water by gavage […] Test 3: male 0712 Black control: double-distilled water by gavage […] Test 4: female 0907 Black control: double-distilled water by gavage […] 3. Mean±SD and Student-t test, or Anova was used in statistical analysis. 4.
# [3] = Observation of water solubility when preparing dosing liquid; type: physicochemical; conditions: double distilled water; visible particles at 0.5 mg/mL, dissolved at low concentration
# Description: Preparation Method: Compounds were weighed accurately, and then dissolved in double distilled water. The suspensions of 0.5, 0.15 and 0.05 mg/mL were prepared, respectively.
# [4] = biological target: T1, DPP-IV (Homo sapiens, UniProt P27487); experiment: Assay for DPP-IV inhibitory activity (DPP-IV-Glo luminescence); type: biochemical; conditions: purified DPP-IV enzyme
# T1 construct: purchased Calbiochem 317630
# Excerpt: 2. […] 3. […] 4. […] 5. […] 7. […] 9. […] 10. […] 11. […] 12.
# [5] = biological target: T2, DPP-IX (Homo sapiens, UniProt Q86TI2); experiment: Assay for DPP-IX inhibitory activity (luminescence); type: biochemical; conditions: purified DPP-IX enzyme
# T2 construct: purchased Bioscience 80090
# [6] = biological target: T3, DPP-VIII (Homo sapiens, UniProt Q6V1X1); experiment: Assay for DPP-VIII inhibitory activity (luminescence); type: biochemical; conditions: purified DPP-VIII enzyme
# T3 construct: purchased Bioscience 80080
# [7] = Test 1, male ICR mice, high dose 10 mg/kg by gavage
# [8] = Test 1, male ICR mice, low dose 1 mg/kg by gavage
# [9] = Test 1, male ICR mice, middle dose 3 mg/kg by gavage
# [10] = Test 2, male ICR mice, high dose 10 mg/kg by gavage
# [11] = Test 2, male ICR mice, low dose 1 mg/kg by gavage
# [12] = Test 2, male ICR mice, middle dose 3 mg/kg by gavage
# [13] = female KKAy mice, 10 mg/kg by gavage, 2.5 g/kg glucose
# [14] = male KKAy mice, 10 mg/kg by gavage, 1.5 g/kg glucose
# [15] = male KKAy mice, 30 mg/kg by gavage, 1.5 g/kg glucose
# T2 sequence (Q86TI2 whole entry): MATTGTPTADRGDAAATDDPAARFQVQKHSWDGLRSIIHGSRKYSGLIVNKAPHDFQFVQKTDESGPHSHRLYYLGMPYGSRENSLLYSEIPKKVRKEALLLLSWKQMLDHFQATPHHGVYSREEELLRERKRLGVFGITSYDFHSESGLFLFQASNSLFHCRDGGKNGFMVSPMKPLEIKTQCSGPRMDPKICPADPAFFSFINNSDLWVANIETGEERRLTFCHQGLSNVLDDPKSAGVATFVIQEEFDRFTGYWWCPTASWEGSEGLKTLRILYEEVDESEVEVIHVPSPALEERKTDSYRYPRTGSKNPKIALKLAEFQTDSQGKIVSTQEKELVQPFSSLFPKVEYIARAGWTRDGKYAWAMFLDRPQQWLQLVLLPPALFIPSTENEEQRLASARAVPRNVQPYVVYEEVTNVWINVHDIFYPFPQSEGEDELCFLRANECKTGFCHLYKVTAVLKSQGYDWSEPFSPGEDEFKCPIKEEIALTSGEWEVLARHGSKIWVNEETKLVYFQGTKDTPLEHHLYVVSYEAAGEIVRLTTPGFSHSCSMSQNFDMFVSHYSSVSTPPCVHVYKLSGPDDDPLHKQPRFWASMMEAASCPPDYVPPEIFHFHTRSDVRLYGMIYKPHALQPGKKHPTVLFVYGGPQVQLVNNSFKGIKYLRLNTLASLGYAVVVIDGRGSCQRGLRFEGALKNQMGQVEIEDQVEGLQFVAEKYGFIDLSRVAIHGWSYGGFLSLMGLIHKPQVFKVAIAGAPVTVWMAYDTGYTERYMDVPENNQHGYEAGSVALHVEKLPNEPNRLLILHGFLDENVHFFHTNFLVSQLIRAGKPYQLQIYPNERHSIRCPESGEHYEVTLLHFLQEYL
# T1 sequence (P27487 whole entry): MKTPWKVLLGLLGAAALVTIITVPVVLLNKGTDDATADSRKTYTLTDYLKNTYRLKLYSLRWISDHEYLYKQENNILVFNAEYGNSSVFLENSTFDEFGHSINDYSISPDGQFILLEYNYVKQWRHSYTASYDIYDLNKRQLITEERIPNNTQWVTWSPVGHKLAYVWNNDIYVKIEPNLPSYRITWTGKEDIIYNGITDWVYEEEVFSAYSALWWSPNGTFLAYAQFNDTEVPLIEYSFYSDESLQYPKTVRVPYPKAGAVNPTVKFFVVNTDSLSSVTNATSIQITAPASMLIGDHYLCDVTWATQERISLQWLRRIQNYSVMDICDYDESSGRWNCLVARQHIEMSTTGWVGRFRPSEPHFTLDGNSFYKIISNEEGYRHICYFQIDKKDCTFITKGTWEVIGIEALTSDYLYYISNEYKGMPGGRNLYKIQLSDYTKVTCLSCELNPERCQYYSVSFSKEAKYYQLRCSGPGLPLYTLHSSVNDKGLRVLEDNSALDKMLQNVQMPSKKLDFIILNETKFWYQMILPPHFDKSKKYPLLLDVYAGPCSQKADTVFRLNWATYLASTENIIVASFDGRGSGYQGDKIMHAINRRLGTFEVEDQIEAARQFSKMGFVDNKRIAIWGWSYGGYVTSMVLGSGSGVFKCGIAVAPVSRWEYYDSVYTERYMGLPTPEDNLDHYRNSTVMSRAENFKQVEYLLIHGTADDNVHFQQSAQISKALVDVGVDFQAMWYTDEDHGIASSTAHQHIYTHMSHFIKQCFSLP
# T3 sequence (Q6V1X1 whole entry): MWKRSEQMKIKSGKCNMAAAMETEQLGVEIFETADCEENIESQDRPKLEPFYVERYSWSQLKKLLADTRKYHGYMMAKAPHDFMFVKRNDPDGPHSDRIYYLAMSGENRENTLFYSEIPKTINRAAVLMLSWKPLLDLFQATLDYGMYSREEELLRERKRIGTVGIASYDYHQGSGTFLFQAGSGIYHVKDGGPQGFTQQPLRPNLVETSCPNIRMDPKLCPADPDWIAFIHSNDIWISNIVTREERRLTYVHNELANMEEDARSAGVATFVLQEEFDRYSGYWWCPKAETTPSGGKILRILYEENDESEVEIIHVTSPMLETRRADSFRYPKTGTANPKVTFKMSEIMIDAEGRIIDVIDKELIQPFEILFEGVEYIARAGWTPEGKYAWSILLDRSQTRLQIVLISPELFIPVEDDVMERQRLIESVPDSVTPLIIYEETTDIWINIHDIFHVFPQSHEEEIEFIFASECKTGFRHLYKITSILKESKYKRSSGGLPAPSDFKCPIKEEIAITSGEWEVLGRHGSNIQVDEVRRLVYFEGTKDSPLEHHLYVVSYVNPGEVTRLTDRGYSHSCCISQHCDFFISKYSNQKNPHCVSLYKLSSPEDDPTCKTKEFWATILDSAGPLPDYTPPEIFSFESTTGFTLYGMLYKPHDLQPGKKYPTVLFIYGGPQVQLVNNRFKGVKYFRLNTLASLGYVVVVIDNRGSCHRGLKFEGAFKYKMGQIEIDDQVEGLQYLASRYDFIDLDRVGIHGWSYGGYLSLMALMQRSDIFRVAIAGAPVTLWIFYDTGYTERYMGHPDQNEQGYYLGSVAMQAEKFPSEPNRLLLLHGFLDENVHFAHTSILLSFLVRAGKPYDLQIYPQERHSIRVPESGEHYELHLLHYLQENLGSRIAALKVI
Compound,"percentage of blood glucose decreased vs control group at 30 minutes [1, 7] [%]","percentage of blood glucose decreased vs control group at 30 minutes [1, 8] [%]","percentage of blood glucose decreased vs control group at 30 minutes [1, 9] [%]","percentage of blood glucose decreased vs control group at 30 minutes [1, 10] [%]","percentage of blood glucose decreased vs control group at 30 minutes [1, 11] [%]","percentage of blood glucose decreased vs control group at 30 minutes [1, 12] [%]","percentage of blood glucose decreased vs control group at 30 minutes ([2]; female KKAy mice, 3 mg/kg by gavage, 2.5 g/kg glucose) [%]","percentage of blood glucose decreased vs control group at 30 minutes [2, 13] [%]","percentage of blood glucose decreased vs control group at 30 minutes [2, 14] [%]","percentage of blood glucose decreased vs control group at 30 minutes [2, 15] [%]",water solubility (observation) [3],IC50 [4] [nM],IC50 [5] [nM],IC50 [6] [nM]
"CN(C)C(=O)N1C[C@H]2C[C@@H](NCC(=O)N3CCC[C@H]3C#N)C[C@H]2C1 [Example 1, cis-5-[2-((S)-2-Cyano-pyrrolidin-1-yl)-2-oxo-ethylamino]-N,N-dimethyl-hexahydro-cyclopenta[c]pyrrole-2-carboxamide hydrochloride]",31.85,19.16,22.85,32.05,26.10,30.24,40.63,24.68,16.22,17.15,poorly water-soluble,,,
"COC(=O)N1C[C@H]2C[C@@H](NCC(=O)N3CCC[C@H]3C#N)C[C@H]2C1 [Example 2, hydrochloride]",26.93,25.54,25.92,27.75,24.51,26.96,,21.55,13.79,12.23,,,,
"CN(C)C(=O)N1C[C@@H]2C[C@](C)(NCC(=O)N3C[C@@H](F)C[C@H]3C#N)C[C@@H]2C1 [Example 13, 5-[2-((2S,4S)-2-Cyano-4-fluoro-pyrrolidin-1-yl)-2-oxo-ethylamino]-N,N,5-tirmethyl-hexahydro-cyclopenta[c]pyrrole-2-carboxamide tartrate]",,,,,,,,,,,,10,516,371
"CN(C)C(=O)N1C[C@@H]2C[C@@](C)(NCC(=O)N3C[C@@H](F)C[C@H]3C#N)C[C@@H]2C1 [Example 18, 5-[2-((2S,4S)-2-Cyano-4-fluoro-pyrrolidin-1-yl)-2-oxo-ethylamino]-5-methyl-hexahydro-cyclopenta[c]pyrrole-2-carboxylic acid dimethylamide p-toluenesulfonate]",,,,,,,,,,,,39,380,3320
